# Assay results published in US8686044B2, “Amide derivative, pest control agent containing the amide derivative, and use of the amide derivative” (Mitsui Chemicals Agro, Inc., priority 2008, dated 2014).
# Experiments:
# Format in all cases: in vivo
# [1] = tested on: Helicoverpa armigera; assay: Pesticidal test against Helicoverpa armigera (cabbage leaf disk dip); details: foliar, 72 h, 2-stage larvae, examined after 3 days, 25° C., read-out: pesticidal rate; for pest or weed control at 1 ppm: concentration 1 ppm
# Procedure: Pesticidal Test against Helicoverpa armigera A cabbage leaf disk was immersed for 30 seconds in a chemical solution in which a test compound had been prepared at a predetermined concentration, and air-dried. The leaf disk was put into a 6-hole plastic cup having a filter paper laid on the bottom thereof, and 2-stage larvae of Helicoverpa armigera were released with one insect being released per hole. They were left to stand in a thermostatic chamber at 25° C., and the numbers of the living pests and the dead pests were examined after 3 days. The test was carried out with five larvae per group in two replicates. Further, the above compound (A) was used as a comparative compound.
# [2] = tested on: Spodoptera litura; assay: Pesticidal test against Spodoptera litura (cabbage leaf dip); details: foliar, 144 h, 2-stage larvae, examined after 6 days, 25° C., read-out: pesticidal rate; for pest or weed control at 1 ppm: concentration 1 ppm
# Outline: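 Cabbage leaf pieces dipped 30 seconds in compound solution at a predetermined concentration and air-dried, then offered to second-stage larvae, five per group in two replicates. Held at 25° C. Living and dead larvae counted after 6 days.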
# [3] = tested on: Choristoneura magnanima; assay: Pesticidal test against Choristoneura magnanima (artificial feed dip); details: 144 h, 2-stage larvae, examined after 6 days, 25° C., read-out: pesticidal rate; for pest or weed control at 1 ppm: concentration 1 ppm; for pest or weed control at 10 ppm: concentration 10 ppm
# Procedure: (§1) Pesticidal Test against Choristoneura magnanima A thinly sliced artificial feed was immersed for 30 seconds in a chemical solution in which a test compound had been prepared at a predetermined concentration, and air-dried, and then put into a 7 cm polyethylene cup having a filter paper laid on the bottom thereof, and 2-stage larvae of Choristoneura magnanima were released. They were left to stand in a thermostatic chamber at 25° C., and the numbers of the living pests and the dead pests were examined after 6 days. The test was carried out with five larvae per group in two replicates. Further, the above compound (A) was used as a comparative compound.
# [4] = tested on: Adoxophyes honmai; assay: Pesticidal test against Adoxophyes honmai (artificial feed dip); details: 144 h, 2-stage larvae, examined after 6 days, 25° C., read-out: pesticidal rate; for pest or weed control at 1 ppm: concentration 1 ppm; for pest or weed control at 10 ppm: concentration 10 ppm
# Procedure: as §1, with “Adoxophyes honmai” for “Choristoneura magnanima”
# [5] = tested on: Laodelphax striatellus; assay: Pesticidal test against Laodelphax striatellus (rice seedling spray); details: 144 h, concentration 100 ppm, 3-stage larvae, examined after 6 days, 25° C., read-out: pesticidal rate
# Outline: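 Rice seedlings sprayed with 2.5 ml acetone solution of compound at a predetermined concentration, air-dried, then infested with third-stage Laodelphax striatellus larvae in capped water-containing tubes at 25 °C. Living and dead insects counted after 6 days; ten larvae per group, two replicates.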
# [6] = tested on: Plutella xylostella; assay: Pesticidal test against Plutella xylostella (cabbage leaf dip); details: foliar, 144 h, 2-stage larvae, examined after 6 days, 25° C., read-out: pesticidal rate; for pest or weed control at 1 ppm: concentration 1 ppm
# Outline: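 Second-stage larvae (5 per group, two replicates) were released onto air-dried cabbage leaf discs that had been immersed for 30 seconds in compound solution at a set concentration. Mortality was scored after 6 days at 25° C.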
# [7] = tested on: Musca domestica; assay: Pesticidal test against Musca domestica (petri dish dry film); details: 24 h, concentration 100 ppm, female adults, examined after 1 day, 25° C., read-out: pesticidal rate
# Procedure: Pesticidal Test against Musca domestica
# 1 ml of an acetone solution in which a test compound had been prepared at a predetermined concentration was added dropwise to a petri dish having a diameter of 9 cm, and air-dried, and then the female adults of Musca domestica were released and the petri dish was capped. They were left to stand in a thermostatic chamber at 25° C., and the numbers of the living pests and the dead pests were examined after 1 day. The test was carried out with five larvae per group in two replicates.
SMILES,pest or weed control at 1 ppm [1] [%],pest or weed control at 1 ppm [2] [%],pest or weed control at 1 ppm [3] [%],pest or weed control at 1 ppm [4] [%],pest or weed control at 100 ppm [5] [%],pest or weed control at 1 ppm [6] [%],pest or weed control at 10 ppm [4] [%],pest or weed control at 10 ppm [3] [%],pest or weed control at 100 ppm [7] [%],pest or weed control at 10 ppm ([1]; concentration 10 ppm) [%],pest or weed control at 10 ppm ([2]; concentration 10 ppm) [%],pest or weed control at 10 ppm ([6]; concentration 10 ppm) [%]
O=C(Nc1c(I)cc(C(F)(C(F)(F)F)C(F)(F)C(F)(F)F)cc1I)c1cccc(NC(=O)c2c(F)cccc2F)c1 (stereo not shown) [6-80],≥ 70,≥ 70,≥ 70,≥ 70,≥ 70,≥ 70,,,,,,
O=C(Nc1c(I)cc(C(F)(C(F)(F)F)C(F)(F)C(F)(F)F)cc1I)c1cccc(NC(=O)c2cccnc2Cl)c1 (stereo not shown) [6-90],≥ 70,≥ 70,≥ 70,≥ 70,≥ 70,≥ 70,,,,,,
O=C(Nc1cccc(C(=O)Nc2c(Br)cc(C(F)(C(F)(F)F)C(F)(F)F)cc2C(F)(F)F)c1)c1ccc(F)cc1 [6-271],≥ 70,≥ 70,≥ 70,,≥ 70,≥ 70,≥ 70,,,,,
O=C(Nc1cccc(C(=O)Nc2c(Br)cc(C(F)(C(F)(F)F)C(F)(F)C(F)(F)F)cc2C(F)(F)F)c1)c1ccc(F)cc1 (stereo not shown) [6-349],≥ 70,≥ 70,≥ 70,≥ 70,,≥ 70,,,,,,
O=C(Nc1c(I)cc(C(F)(C(F)(F)F)C(F)(F)F)cc1C(F)(F)F)c1cccc(NC(=O)c2c(F)cccc2F)c1 [6-446],≥ 70,≥ 70,,≥ 70,≥ 70,≥ 70,,≥ 70,,,,
O=C(Nc1cccc(C(=O)Nc2c(Br)cc(C(F)(C(F)(F)F)C(F)(F)F)cc2Br)c1F)c1ccccc1 [6-1104],≥ 70,≥ 70,≥ 70,,≥ 70,≥ 70,≥ 70,,,,,
O=C(Nc1cccc(C(=O)Nc2c(Br)cc(C(F)(C(F)(F)F)C(F)(F)C(F)(F)F)cc2Br)c1F)c1ccccc1 (stereo not shown) [6-1182],,≥ 70,≥ 70,≥ 70,≥ 70,≥ 70,,,,,,
O=C(Nc1cccc(C(=O)Nc2c(I)cc(C(F)(C(F)(F)F)C(F)(F)F)cc2I)c1F)c1ccc(F)cc1 [6-1263],≥ 70,≥ 70,≥ 70,≥ 70,≥ 70,≥ 70,,,,,,
O=C(Nc1cccc(C(=O)Nc2c(Br)cc(C(F)(C(F)(F)F)C(F)(F)F)cc2C(F)(F)F)c1F)c1ccccc1 [6-1574],≥ 70,≥ 70,≥ 70,≥ 70,≥ 70,≥ 70,,,,,,
O=C(Nc1cccc(C(=O)Nc2c(Br)cc(C(F)(C(F)(F)F)C(F)(F)C(F)(F)F)cc2C(F)(F)F)c1F)c1cccc(F)c1 (stereo not shown) [6-1654],≥ 70,≥ 70,≥ 70,≥ 70,≥ 70,≥ 70,,,,,,
O=C(Nc1cccc(C(=O)Nc2c(Br)cc(C(F)(C(F)(F)F)C(F)(F)C(F)(F)F)cc2C(F)(F)F)c1F)c1ccc(F)cc1 (stereo not shown) [6-1655],≥ 70,≥ 70,≥ 70,≥ 70,≥ 70,≥ 70,,,,,,
N#Cc1ccc(C(=O)Nc2cccc(C(=O)Nc3c(Br)cc(C(F)(C(F)(F)F)C(F)(F)C(F)(F)F)cc3C(F)(F)F)c2F)cc1 (stereo not shown) [6-1673],≥ 70,≥ 70,≥ 70,,≥ 70,≥ 70,,,≥ 70,,,
N#Cc1ccc(C(=O)Nc2cccc(C(=O)Nc3c(I)cc(C(F)(C(F)(F)F)C(F)(F)C(F)(F)F)cc3C(F)(F)F)c2F)cc1 (stereo not shown) [6-1829],≥ 70,≥ 70,≥ 70,,≥ 70,≥ 70,,,≥ 70,,,
CN(C(=O)c1cccnc1Cl)c1cccc(C(=O)Nc2c(I)cc(C(F)(C(F)(F)F)C(F)(F)C(F)(F)F)cc2I)c1 (stereo not shown) [7-90],≥ 70,≥ 70,≥ 70,,≥ 70,≥ 70,,,≥ 70,,,
CN(C(=O)c1cccc(F)c1)c1cccc(C(=O)Nc2c(I)cc(C(F)(C(F)(F)F)C(F)(F)C(F)(F)F)cc2C(F)(F)F)c1 (stereo not shown) [7-504],,≥ 70,≥ 70,,,≥ 70,,,≥ 70,,,
CN(C(=O)c1ccc(C#N)cc1)c1cccc(C(=O)Nc2c(I)cc(C(F)(C(F)(F)F)C(F)(F)C(F)(F)F)cc2C(F)(F)F)c1 (stereo not shown) [7-523],≥ 70,≥ 70,≥ 70,,,≥ 70,≥ 70,,,,,
CN(C(=O)c1cccc(C#N)c1)c1cccc(C(=O)Nc2c(Br)cc(C(F)(C(F)(F)F)C(F)(F)F)cc2Br)c1F [7-1124],,≥ 70,≥ 70,,≥ 70,≥ 70,≥ 70,,,,,
CN(C(=O)c1ccccc1)c1cccc(C(=O)Nc2c(I)cc(C(F)(C(F)(F)F)C(F)(F)F)cc2I)c1F [7-1260],,≥ 70,≥ 70,,≥ 70,≥ 70,≥ 70,,,,,
CN(C(=O)c1ccc(C#N)cc1)c1cccc(C(=O)Nc2c(I)cc(C(F)(C(F)(F)F)C(F)(F)F)cc2I)c1F [7-1281],,≥ 70,≥ 70,,≥ 70,≥ 70,,,,,,
CN(C(=O)c1ccc(C#N)cc1)c1cccc(C(=O)Nc2c(I)cc(C(F)(C(F)(F)F)C(F)(F)C(F)(F)F)cc2I)c1F (stereo not shown) [7-1359],≥ 70,≥ 70,≥ 70,,≥ 70,≥ 70,,,≥ 70,,,
CN(C(=O)c1ccc(C#N)cc1F)c1cccc(C(=O)Nc2c(Br)cc(C(F)(C(F)(F)F)C(F)(F)F)cc2C(F)(F)F)c1F [7-1606],≥ 70,≥ 70,,,≥ 70,≥ 70,,≥ 70,,,,
CN(C(=O)c1ccc(C#N)cc1)c1cccc(C(=O)Nc2c(I)cc(C(F)(C(F)(F)F)C(F)(F)C(F)(F)F)cc2C(F)(F)F)c1F (stereo not shown) [7-1829],≥ 70,≥ 70,≥ 70,,≥ 70,≥ 70,,,≥ 70,,,
"COc1cc(C(F)(C(F)(F)F)C(F)(F)F)cc(C)c1NC(=O)c1cccc(N(C)C(=O)c2ccccc2)c1 [compound (A), reference compound]",,,,,,,≤ 50,≤ 50,,≤ 50,≤ 50,≤ 50
